The record followed here is US11673898B2, “Substituted inhibitors of menin-MLL and methods of use” (Kura Oncology, Inc., priority 2016, dated 2023).

One experiment deals with T1, Menin MLL 4-43 (Homo sapiens, UniProt O00255).
T1 sequence (O00255 1-610): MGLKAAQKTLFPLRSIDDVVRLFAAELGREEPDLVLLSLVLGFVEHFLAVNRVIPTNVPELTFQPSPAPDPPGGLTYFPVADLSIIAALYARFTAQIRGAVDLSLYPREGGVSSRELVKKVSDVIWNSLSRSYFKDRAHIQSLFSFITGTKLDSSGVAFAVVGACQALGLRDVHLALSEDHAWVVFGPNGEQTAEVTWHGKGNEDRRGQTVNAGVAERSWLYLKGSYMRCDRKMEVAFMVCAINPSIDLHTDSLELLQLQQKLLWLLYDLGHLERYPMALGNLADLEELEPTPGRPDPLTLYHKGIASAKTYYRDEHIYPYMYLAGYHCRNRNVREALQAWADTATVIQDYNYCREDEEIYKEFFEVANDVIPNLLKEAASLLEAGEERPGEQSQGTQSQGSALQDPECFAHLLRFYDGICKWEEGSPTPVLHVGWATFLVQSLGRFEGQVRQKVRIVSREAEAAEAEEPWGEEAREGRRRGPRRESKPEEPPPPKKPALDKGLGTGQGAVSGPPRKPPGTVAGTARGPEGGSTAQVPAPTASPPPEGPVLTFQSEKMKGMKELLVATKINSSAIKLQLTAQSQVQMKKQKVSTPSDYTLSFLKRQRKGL
In words: Fluorescence polarization (FP) competition assay of the menin-MLL interaction. Format: binding.

In a further experiment the test system is MLL-AF9 BMC. In words: Cell proliferation assay (CellTiter-Glo). Format: cell-based. On the procedure:
Example 9: Cell proliferation assay. The ability of a compound of the present disclosure to inhibit the growth of cells, such as human leukemia cell, acute myeloid leukemia cell, cells with an MLL fusion, control cells without an MLL fusion, VCaP, LNCaP, 22RV1, DU145, LNCaP-AR, MV4; 11, KOPN-8, ML-2, MOLM-13, RS4; 11, SEM, bone marrow cells (BMCs), MLL-AF9, MLL-AF4, MLL-ENL, MLL-CBP, MLL-GAS7, MLL-AF1p, MLL-AF6, HM-2, E2A-HLF, REH, U937, K562, KG-1, HL-60 and NB4 cells, is tested using a cell viability assay, such as the Promega CellTiter-Glo® Luminescent Cell Viability Assay (Promega Technical Bulletin, 2015, “CellTiter-Glo® Luminescent Cell Viability Assay”: 1-15, herein incorporated by reference in its entirety). Cells are plated at relevant concentrations, for example about 1×10^5-2×10^5 cells per well in a 96-well plate. A compound of the present disclosure is added at a concentration up to about 2 μM with eight, 2-fold serial dilutions for each compound. Cells are incubated at 37° C. for a period of time, for example, 72 hours, then cells in the control wells are counted. Media is changed to restore viable cell numbers to the original concentration, and compounds are re-supplied. Proliferation is measured about 72 hours later using Promega CellTiter-Glo® reagents, as per kit instructions.
On the technique in general: ATP-based viability assays read luminescence as a measure of living cells.

In the next experiment the test system is MV4; 11-luc tumors. In words: Efficacy study in xenotransplantation mouse model of MLL leukemia (luminescence). Format: in vivo. Particulars: NSG mice, 120 mg/kg b.i.d. oral gavage, 6 days of treatment. The procedure: Example 20: Efficacy study in xenotransplantation mouse model ofMLL leukemia. […] Luciferase expressing human MV4; 11 leukemia cells (MV4; 11-luc) were engrafted intravenously via tail vein injection (1×10^7 cells/animal) When the mean luminescence of the cells reached approximately 1.5×10^6, the tumor-bearing mice were randomly assigned to a vehicle control or a compound treatment group (5 animals per group). Animals in each of the treatment groups were administered a different compound of the present disclosure by oral gavage (120 mg/kg b.i.d, 150 mg/kg b.i.d., 200 mg/kg b.i.d., or 200 mg/kg q.d.). Body weight was measured daily, while mean luminescence was measured 6 days after initiating the treatment with compound or vehicle.

The test system of experiment [1] is MV4; 11 cells (MLL-AF4 AML). Briefly: MTT cell proliferation assay. The experiment is classed as cell-based, human. On the procedure: (§1) Example 18: Cell proliferation assays. The ability of a compound of the present disclosure to inhibit the growth of cells was tested in both MLL leukemia cell lines (e.g., MV4; 11, MOLM13 and/or KOPN8) and control cell lines (e.g., K562, REH, U937, KG-1, and/or HL-60) using the MTT cell proliferation assay (ATCC® 30-1010K). […] Cells were plated at about 1×10^5 cells per well in a 96-well plate. A compound of the present disclosure was added at a concentration up to about 2 μM with seven, 2-fold serial dilutions for each compound. Cells were incubated at 37° C. for 72 hours, then cells in the control wells were counted. Media was changed to restore viable cell numbers to the original concentration, and compounds were re-supplied. Proliferation was measured 96 hours later using MTT reagents, as per kit instructions. […] The GIso value of a compound of the present disclosure, such as Compound D of FIG. 11, was 10 nM in MV4; 11 cells (MLL-AF4 AML), 17 nM in MOLM13 cells (MLL-AF9 AML), 18 nM in KOPN8 (MLL-ENL AML) cells, greater than 2000 nM in HL-60 cells, and greater than 2000 nM in U937 cells. REH, K562, KG-1, and U937 cells are control cell lines without MLL fusions.
On the technique in general: Formazan colour is commonly taken as a measure of viable cells.

The subject of experiment [2] is KOPN8 (MLL-ENL AML) cells. Briefly: MTT cell proliferation assay. Format: cell-based. The procedure:
as §1

The subject of experiment [3] is MOLM13 cells (MLL-AF9 AML). In words: MTT cell proliferation assay. Format: cell-based. On the procedure: as §1
A further experiment concerns HL-60 cells. In words: MTT cell proliferation assay, control cell line. The experiment is classed as cell-based. Particulars: HL-60 cells (control). The procedure:
as §1

In a further experiment the test system is U937 cells. Briefly: MTT cell proliferation assay, control cell line. The experiment is classed as cell-based. On the procedure:
as §1

Experiment [4] concerns MLL fusion protein target genes HOXA9, DLX2, MEIS1 and differentiation marker CD11B. In words: qRT-PCR gene expression in bone marrow samples of treated xenotransplantation mice. The experiment is classed as in vivo, mouse. To be noted: Day 7 of treatment, qRT-PCR normalized to GAPDH. The procedure: Animals were sacrificed on Day 7 of treatment and bone marrow samples collected and prepared for gene expression analysis. Expression levels of MLL fusion protein target genes HOXA9, DLX2, and/or MEIS1 were measured by qRT-PCR and are presented in FIG. 6, FIG. 9 and FIG. 12 as fold changes normalized to GAPDH expression.
In general terms: Quantitative PCR measures a nucleic acid by following its amplification.

The subject of another experiment is MOLM13 cells. Briefly: Survival study in xenotransplantation MOLM13 xenograft model. The experiment is classed as in vivo, mouse. The procedure:
For survival studies in the xenotransplantation MOLM13 xenograft model, 6 to 8-week old female NSG mice were intravenously injected with 0.5×10^6 MOLM13 cells harboring […] translocation. At day 4 after transplantation, treatment was initiated with Compound C, 75 mg/kg, b.i.d., p.o. or vehicle (20% 2-hydroxypropyl-b-cyclodextrin with 5% cremophore) and was continued for 16 consecutive days in the compound treated mice or until terminal leukemia developed in the vehicle-treated mice.
Similarly, a 120 mg/kg b.i.d. treatment regimen of Compound D was initiated on day 6 after MOLM13 transplantation and continued for 16 consecutive days in the compound treated mice or until terminal leukemia developed in the vehicle-treated mice.

Where two headings read alike, the source gives them in different places. Where only a bound is given, the exact number is not on record here.

A word on the IC50: it is the concentration that inhibits the measured activity by half. What is called GI50 is the concentration that inhibits growth by half. A lower GI50 goes with greater sensitivity of the cells.

As for `Cc1nc(NC2CCN(Cc3ccc4c(cc(C#N)n4C[C@H](C)N4CCC(S(C)(=O)=O)CC4)c3C)CC2)c2cc(CC(F)(F)F)sc2n1` [Compound 165], the IC50 is below 50 nM on Menin MLL 4-43 (fluorescence polarization assay, read-out: Menin MLL 4-43 IC50) and below 50 nM at Menin MLL 4-43 (read-out: IC50 value (ability to disrupt the menin-MLL interaction, per Example 6)). Further, the GI50 in the experiment on MLL-AF9 BMC is below 10 nM. In addition, the “Tumor growth (luminescence) relative to vehicle control” value in the experiment on MV4; 11-luc tumors was “inhibited tumor growth and induced tumor regression”.

In the case of `Cc1nc(NC2CCN(Cc3ccc4c(cc(C#N)n4C[C@H](C)N4CCC(S(C)(=O)=O)CC4)c3C)CC2)c2cc(CC(F)(F)F)sc2n1` [Compound D], the GI50 in experiment [1] was 10 nM; in [2], 18 nM; in [3], 17 nM; with HL-60 cells, above 2000 nM; in the experiment with U937 cells, above 2000 nM. Also, the “Expression level of HOXA9” value in experiment [4] is “substantially reduced”. Further, the “Expression level of MEIS1” value in experiment [4] is reported as “substantially reduced”. Moreover, the “Expression of differentiation marker CD1 lb” value in [4] was “elevated”. The molecule also showed a Median survival time in the experiment on MOLM13 cells (NSG mice, 120 mg/kg b.i.d., 16 consecutive days from day 6 after MOLM13 transplantation) of 24 days. Moreover, the results for the Survival benefit with MOLM13 cells (versus vehicle control group) and in the experiment with MOLM13 cells (versus vehicle control group (16 days)) were 75% and 18 days, respectively.
